# Laboratory results reported in ChEMBL document CHEMBL3137667, “[Drug-induced liver injury; fourteenth updated edition of the bibliographic database of liver injuries and related drugs]” (Gastroenterol Clin Biol, 2004).
# Columns and labels:
# [1] = human
# [2] = Highest frequency of moderate liver toxicity observed during clinical trials, expressed as a percentage. [column '% BIOL' in source]; details: human
# [3] = Comments (NB not yet translated). [column 'COMMENTAIRES' in source]; details: human
# [4] = human; remark: listed apart in the source
# [5] = human; remark: listed apart in the source
# [6] = human; remark: listed apart in the source
# [7] = Proposed mechanism(s) of liver damage. [column 'MEC' in source]; details: human
# [8] = Highest frequency of acute liver toxicity observed during clinical trials, expressed as a percentage. [column '% AIGUE' in source]; details: human
# [9] = human, serum
# [10] = Times to onset, minimal and maximal, observed in the indexed observations. [column 'DELAI' in source]; details: human
# [11] = human; remark: listed apart in the source
# [12] = human, serum, 4383 h
# [13] = human, serum; remark: listed apart in the source
# [14] = Presence of at least one case with successful reintroduction. [column 'REINT' in source]; details: human
# [15] = human; remark: listed apart in the source
# [16] = human; remark: listed apart in the source
# [17] = human; remark: listed apart in the source
# [18] = human; remark: listed apart in the source
# 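Throughout, for Hepatotoxicity (association with vascular disease): count of indexed literature references reporting vascular liver injury in humans, e.g. peliosis hepatitis, hepatic veno-occlusive disease or Budd-Chiari syndrome.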
# 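Throughout, for Hepatotoxicity (benign tumour): value is a count of indexed literature references citing a benign tumour confirmed by histopathology.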
# 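Throughout, for Hepatotoxicity (choleostasis): human cholestatic liver injury, shown by histopathology or by peak ALT or AST elevation over alkaline phosphatase ratio below 2, value counts indexed literature reports.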
# 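Throughout, for Hepatotoxicity (chronic liver disease): chronic liver injury confirmed by histopathology or persistently raised serum aminotransferase activity beyond 6 months, value given as the count of indexed literature references.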
# 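Throughout, for Hepatotoxicity (cirrhosis): value is a count of indexed literature references reporting cirrhosis confirmed by histopathology.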
# 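Throughout, for Hepatotoxicity (cytolytic): human cytolytic liver injury, shown by histopathology or by a ratio above 5 of peak ALT or AST elevation to alkaline phosphatase elevation, value counts indexed references.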
# 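Throughout, for Hepatotoxicity (granulomatous hepatitis): value is a count of indexed literature references reporting granulomatous liver disease confirmed by histopathology.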
# 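Throughout, for Hepatotoxicity (malignant tumour): malignant tumour confirmed by histopathology, value gives the count of indexed literature references reporting it.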
# 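Throughout, for Hepatotoxicity (severe hepatitis): human clinical data: severe hepatitis, meaning potentially life-threatening liver failure or clinically observed cases, the value counts how many indexed literature references report it.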
# 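Throughout, for Hepatotoxicity (steatosis): steatosis confirmed by histopathology, value is the count of indexed references.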
compound,measurement,setting,value
CC1=C(CC(=O)O)c2cc(F)ccc2/C1=C\c1ccc([S+](C)[O-])cc1 (stereo unspecified),Hepatotoxicity (cirrhosis),[1],0
same,Hepatotoxicity (moderate),[2],14.9%
same,Hepatotoxicity (comment),[3],LITHIASE CHOLESTASE_PROLONGEE CHOLANGITE
same,Hepatotoxicity (benign tumour),[4],0
same,Hepatotoxicity (granulomatous hepatitis),[5],0
same,Hepatotoxicity (malignant tumour),[6],0
same,Hepatotoxicity (mechanism),[7],Allergic
same,Hepatotoxicity (acute),[8],0.2%
same,Hepatotoxicity (acute),[9],29
same,Hepatotoxicity (time to onset),[10],1 day - 1.5 years
same,Hepatotoxicity (choleostasis),[11],22
same,Hepatotoxicity (chronic liver disease),[12],0
same,Hepatotoxicity (moderate),[13],25
same,Hepatotoxicity (successful reintroduction),[14],yes
same,Hepatotoxicity (association with vascular disease),[15],0
same,Hepatotoxicity (severe hepatitis),[16],3
same,Hepatotoxicity (cytolytic),[17],12
same,Hepatotoxicity (steatosis),[18],4
CC1(C)S[C@@H]2[C@H](NC(=O)[C@H](N)c3ccc(O)cc3)C(=O)N2[C@H]1C(=O)O.O=C(O)[C@H]1/C(=C/CO)O[C@@H]2CC(=O)N21,Hepatotoxicity (cirrhosis),[1],1
same,Hepatotoxicity (moderate),[2],15%
same,Hepatotoxicity (comment),[3],CHOLANGITE #CBP AC_ANTI-N RC/ERYTHROMYCINE
same,Hepatotoxicity (benign tumour),[4],0
same,Hepatotoxicity (granulomatous hepatitis),[5],6
same,Hepatotoxicity (malignant tumour),[6],0
same,Hepatotoxicity (mechanism),[7],Allergic
same,Hepatotoxicity (acute),[8],0.3%
same,Hepatotoxicity (acute),[9],74
same,Hepatotoxicity (time to onset),[10],< 1 day - 15 weeks
same,Hepatotoxicity (choleostasis),[11],61
same,Hepatotoxicity (chronic liver disease),[12],0
same,Hepatotoxicity (moderate),[13],15
same,Hepatotoxicity (successful reintroduction),[14],yes
same,Hepatotoxicity (association with vascular disease),[15],0
same,Hepatotoxicity (severe hepatitis),[16],8
same,Hepatotoxicity (cytolytic),[17],21
same,Hepatotoxicity (steatosis),[18],7
CCC[N+]12[C@H](O)[C@@H](CC)[C@@H]3C[C@H]1[C@@H]1N(C)c4ccccc4[C@]14C[C@H]2C3[C@H]4O (stereo partly specified),Hepatotoxicity (cirrhosis),[1],0
same,Hepatotoxicity (moderate),[2],0%
same,Hepatotoxicity (comment),[3],RC/QUINIDINE CHOLESTASE_PROLONGEE CHOLANGITE
same,Hepatotoxicity (benign tumour),[4],0
same,Hepatotoxicity (granulomatous hepatitis),[5],2
same,Hepatotoxicity (malignant tumour),[6],0
same,Hepatotoxicity (mechanism),[7],Allergic
same,Hepatotoxicity (acute),[8],0%
same,Hepatotoxicity (acute),[9],15
same,Hepatotoxicity (time to onset),[10],3 days - 4 months
same,Hepatotoxicity (choleostasis),[11],14
same,Hepatotoxicity (chronic liver disease),[12],2
same,Hepatotoxicity (moderate),[13],0
same,Hepatotoxicity (successful reintroduction),[14],yes
same,Hepatotoxicity (association with vascular disease),[15],0
same,Hepatotoxicity (severe hepatitis),[16],0
same,Hepatotoxicity (cytolytic),[17],3
same,Hepatotoxicity (steatosis),[18],0
CCOC(=O)[C@H](CCc1ccccc1)N[C@@H](C)C(=O)N1CCC[C@H]1C(=O)O,Hepatotoxicity (cirrhosis),[1],0
same,Hepatotoxicity (moderate),[2],2.8%
same,Hepatotoxicity (comment),[3],DUCTOPENIE RC/CAPTOPRIL
same,Hepatotoxicity (benign tumour),[4],0
same,Hepatotoxicity (granulomatous hepatitis),[5],0
same,Hepatotoxicity (malignant tumour),[6],0
same,Hepatotoxicity (mechanism),[7],Allergic
same,Hepatotoxicity (acute),[8],0%
same,Hepatotoxicity (acute),[9],13
same,Hepatotoxicity (time to onset),[10],10 days - 3 years
same,Hepatotoxicity (choleostasis),[11],4
same,Hepatotoxicity (chronic liver disease),[12],0
same,Hepatotoxicity (moderate),[13],9
same,Hepatotoxicity (successful reintroduction),[14],yes
same,Hepatotoxicity (association with vascular disease),[15],0
same,Hepatotoxicity (severe hepatitis),[16],3
same,Hepatotoxicity (cytolytic),[17],7
same,Hepatotoxicity (steatosis),[18],0
O=C(CCCN1CCC(O)(c2ccc(Cl)cc2)CC1)c1ccc(F)cc1 [HALOPERIDOL],Hepatotoxicity (cirrhosis),[1],0
same,Hepatotoxicity (moderate),[2],35.1%
same,Hepatotoxicity (comment),[3],RC/FLUPHENAZINE CHOLESTASE_PROLONGEE #CBP
same,Hepatotoxicity (benign tumour),[4],0
same,Hepatotoxicity (granulomatous hepatitis),[5],0
same,Hepatotoxicity (malignant tumour),[6],0
same,Hepatotoxicity (mechanism),[7],Allergic
same,Hepatotoxicity (acute),[8],0.8%
same,Hepatotoxicity (time to onset),[10],2 weeks - 5 months
same,Hepatotoxicity (choleostasis),[11],8
same,Hepatotoxicity (chronic liver disease),[12],1
same,Hepatotoxicity (moderate),[13],12
same,Hepatotoxicity (successful reintroduction),[14],yes
same,Hepatotoxicity (association with vascular disease),[15],0
same,Hepatotoxicity (severe hepatitis),[16],0
same,Hepatotoxicity (cytolytic),[17],4
same,Hepatotoxicity (steatosis),[18],0
C=C[C@H]1C[N@@]2CC[C@H]1C[C@@H]2[C@@H](O)c1ccnc2ccc(OC)cc12 [QUINIDINE],Hepatotoxicity (cirrhosis),[1],0
same,Hepatotoxicity (moderate),[2]; Liver,2%
same,Hepatotoxicity (comment),[3],RC/PRAJMALINE
same,Hepatotoxicity (benign tumour),[4],0
same,Hepatotoxicity (granulomatous hepatitis),[5],11
same,Hepatotoxicity (malignant tumour),[6],0
same,Hepatotoxicity (mechanism),[7],Allergic
same,Hepatotoxicity (time to onset),[10],1 day - 7 months
same,Hepatotoxicity (choleostasis),[11],12
same,Hepatotoxicity (chronic liver disease),[12],1
same,Hepatotoxicity (moderate),[13],5
same,Hepatotoxicity (successful reintroduction),[14],yes
same,Hepatotoxicity (association with vascular disease),[15],0
same,Hepatotoxicity (severe hepatitis),[16]; Liver,2
same,Hepatotoxicity (cytolytic),[17],12
same,Hepatotoxicity (steatosis),[18],0
C=C[C@H]1C[N@@]2CC[C@H]1C[C@H]2[C@H](O)c1ccnc2ccc(OC)cc12 [QUININE],Hepatotoxicity (cirrhosis),[1],0
same,Hepatotoxicity (moderate),[2]; Liver,15.4%
same,Hepatotoxicity (comment),[3],AC_ANTI-N
same,Hepatotoxicity (benign tumour),[4],0
same,Hepatotoxicity (granulomatous hepatitis),[5],4
same,Hepatotoxicity (malignant tumour),[6],0
same,Hepatotoxicity (mechanism),[7],Allergic
same,Hepatotoxicity (time to onset),[10],< 1 day - 2 years
same,Hepatotoxicity (choleostasis),[11],2
same,Hepatotoxicity (chronic liver disease),[12],0
same,Hepatotoxicity (moderate),[13],2
same,Hepatotoxicity (successful reintroduction),[14],yes
same,Hepatotoxicity (association with vascular disease),[15],0
same,Hepatotoxicity (severe hepatitis),[16]; Liver,0
same,Hepatotoxicity (cytolytic),[17],3
same,Hepatotoxicity (steatosis),[18],0
